Experimental data from ChEMBL document CHEMBL3600375, “Anti-Plasmodium falciparum activity of quinoline-sulfonamide hybrids” (Bioorg Med Chem, 2015).

Tests used:
[1] = system: Plasmodium falciparum; experiment: Antiplasmodial activity against chloroquine and sulfadoxine-resistant and mefloquine-sensitive Plasmodium falciparum W2 infected in human erythrocytes by anti-HRP2 assay; assay type: functional, organism-based
[2] = Cytotoxicity against African green monkey BGM cells incubated for 18 hrs by neutral red assay; assay type: cell-based; details: chlorocebus aethiops, read-out: MLC50
[3] = Selectivity index, ratio of MLC50 for African green monkey BGM cells to IC50 for chloroquine and sulfadoxine-resistant and mefloquine-sensitive Plasmodium falciparum W2; assay type: toxicity, cell-based; details: read-out: Selectivity Index
[4] = system: Plasmodium berghei; experiment: Antiplasmodial activity against Plasmodium berghei NK65 infected in mouse assessed as inhibition of inhibition of parasitemia at 10 mg/kg, po treated for 3 consecutive days 24 hrs after parasite infection and measured on day 7 after inoculation by Giemsa staining based microscopy; assay type: functional
[5] = system: Plasmodium berghei; experiment: Antiplasmodial activity against Plasmodium berghei NK65 infected in mouse assessed as inhibition of inhibition of parasitemia at 10 mg/kg, po treated for 3 consecutive days 24 hrs after parasite infection and measured on day 5 after inoculation by Giemsa staining based microscopy; assay type: functional
[6] = system: Plasmodium berghei; experiment: Antiplasmodial activity against Plasmodium berghei NK65 infected in mouse assessed as inhibition of inhibition of parasitemia at 20 mg/kg, po treated for 3 consecutive days 24 hrs after parasite infection and measured on day 7 after inoculation by Giemsa staining based microscopy; assay type: functional
[7] = system: Plasmodium berghei; experiment: Antiplasmodial activity against Plasmodium berghei NK65 infected in mouse assessed as inhibition of inhibition of parasitemia at 20 mg/kg, po treated for 3 consecutive days 24 hrs after parasite infection and measured on day 5 after inoculation by Giemsa staining based microscopy; assay type: functional
[8] = system: Plasmodium berghei; experiment: Antiplasmodial activity against Plasmodium berghei NK65 infected in mouse assessed as inhibition of inhibition of parasitemia at 1 mg/kg, po treated for 3 consecutive days 24 hrs after parasite infection and measured on day 5 after inoculation by Giemsa staining based microscopy; assay type: functional
[9] = system: Plasmodium berghei; experiment: Antiplasmodial activity against Plasmodium berghei NK65 infected in mouse assessed as inhibition of inhibition of parasitemia at 1 mg/kg, po treated for 3 consecutive days 24 hrs after parasite infection and measured on day 7 after inoculation by Giemsa staining based microscopy; assay type: functional

Molecule O=S(=O)(NCCNc1ccnc2cc(Cl)ccc12)c1ccc(Cl)cc1 has an IC50 [1] of 0.68 µM, a CC50 at 18 h [2] of 116 µM and a selectivity ratio [3] of 171.
Molecule O=S(=O)(NCCNc1ccnc2cc(Cl)ccc12)c1ccccc1 has an IC50 [1] of 1.63 µM, a CC50 at 18 h [2] of 122 µM and a selectivity ratio [3] of 74.7.
For Cc1ccc(S(=O)(=O)NCCNc2ccnc3cc(Cl)ccc23)cc1, the IC50 [1] was 0.48 µM, the CC50 at 18 h [2] was 125 µM and the selectivity ratio [3] was 261.
For O=S(=O)(NCCNc1ccnc2cc(Cl)ccc12)c1ccc(Br)cc1, the IC50 [1] was 1.21 µM, the CC50 at 18 h [2] was 88.8 µM and the selectivity ratio [3] was 73.3.
For O=S(=O)(NCCNc1ccnc2cc(Cl)ccc12)c1ccc(F)cc1, the IC50 [1] was 1.13 µM, the CC50 at 18 h [2] was 203 µM and the selectivity ratio [3] was 180.
In the case of O=S(=O)(NCCCNc1ccnc2cc(Cl)ccc12)c1ccccc1, the IC50 [1] is reported as 0.35 µM, the CC50 at 18 h [2] is reported as 275 µM and the selectivity ratio [3] is reported as 784.
Work on Cc1ccc(S(=O)(=O)NCCCNc2ccnc3cc(Cl)ccc23)cc1 yielded an IC50 [1] of 0.28 µM, a CC50 at 18 h [2] of 95 µM and a selectivity ratio [3] of 339.
O=S(=O)(NCCCNc1ccnc2cc(Cl)ccc12)c1ccc(Cl)cc1 showed an IC50 [1] of 0.27 µM, a CC50 at 18 h [2] of 103 µM and a selectivity ratio [3] of 380.
Work on O=S(=O)(NCCCNc1ccnc2cc(Cl)ccc12)c1ccc(Br)cc1 yielded an IC50 [1] of 0.29 µM, a CC50 at 18 h [2] of 22 µM and a selectivity ratio [3] of 75.8.
Work on O=S(=O)(NCCCNc1ccnc2cc(Cl)ccc12)c1ccc(F)cc1 yielded an inhibition in vivo at 10 mg/kg [4] of 27%, an IC50 [1] of 0.1 µM and a CC50 at 18 h [2] of 339 µM. It also gave a selectivity ratio [3] of 3390 and an inhibition in vivo at 10 mg/kg [5] of 47%.
In the case of O=S(=O)(NCCCCNc1ccnc2cc(Cl)ccc12)c1ccccc1, the IC50 [1] is reported as 0.4 µM, the CC50 at 18 h [2] is reported as > 257 µM and the selectivity ratio [3] is reported as > 642.
For O=S(=O)(NCCCCNc1ccnc2cc(Cl)ccc12)c1ccc(Cl)cc1, the inhibition in vivo at 10 mg/kg [4] was 33%, the IC50 [1] was 0.09 µM and the CC50 at 18 h [2] was 99.2 µM. The selectivity ratio [3] was 1100 and the inhibition in vivo at 10 mg/kg [5] was 49%.
For O=S(=O)(NCCCCNc1ccnc2cc(Cl)ccc12)c1ccc(Br)cc1, the IC50 [1] was 0.15 µM, the CC50 at 18 h [2] was 14.9 µM and the selectivity ratio [3] was 99.3.
In the case of O=S(=O)(NCCCCNc1ccnc2cc(Cl)ccc12)c1ccc(F)cc1, the inhibition in vivo at 10 mg/kg [4] is reported as 7%, the IC50 [1] is reported as 0.15 µM and the CC50 at 18 h [2] is reported as 155 µM. It also gave a selectivity ratio [3] of 1030 and an inhibition in vivo at 10 mg/kg [5] of 30%.
Cc1ccc(S(=O)(=O)NCCCCNc2ccnc3cc(Cl)ccc23)cc1 gave an inhibition in vivo at 10 mg/kg [4] of 0%, an IC50 [1] of 0.05 µM and a CC50 at 18 h [2] of 107 µM. For the same molecule, the selectivity ratio [3] was 2490 and the inhibition in vivo at 10 mg/kg [5] was 27%.
CCN(CC)CCCC(C)Nc1ccnc2cc(Cl)ccc12 (centres undefined) [CHLOROQUINE] gave an inhibition in vivo at 20 mg/kg [6] of 76% and an inhibition in vivo at 20 mg/kg [7] of 93%.
In the case of COc1ncnc(NS(=O)(=O)c2ccc(N)cc2)c1OC [SULFADOXINE], the inhibition in vivo at 1 mg/kg [8] is reported as 100%, the inhibition in vivo at 1 mg/kg [9] is reported as 96% and the IC50 [1] is reported as > 15.5 µM. The CC50 at 18 h [2] was > 310 µM.
